Source: PMC11399425, “Tricyclic and tetracyclic antidepressants upregulate VMAT2 activity and rescue disease-causing VMAT2 variants” (Neuropsychopharmacology, 2024)

Assays:
VMAT2 [1] = molecular target: T1, VMAT2 (Mus musculus, UniProt Q8BRU6); experiment: FFN206 uptake inhibition assay (30-min treatment) in HEK-VMAT2 cells; settings: for Hill Slope (inhibition): 30 min inhibition curve fit; for Imax, % vehicle (mean ± SEM): VMAT2 activity at 100 μM compound, 30 min, normalized to vehicle (100%)
Method: We detected colocalization of VMAT2 and FFN206 using epifluorescence microscopy (Fig. S2) and used FFN206 uptake to measure VMAT2 activity in HEK cells stably expressing mouse VMAT2 (HEK-VMAT2). We tested seven tricyclics and three tetracyclics that are approved for clinical use in humans (Fig. 1A, B). […] Next, we assessed the potency of the tricyclics and tetracyclics using dose response experiments.
For the inhibition assay, HEK-VMAT2 cells were seeded at 50,000 cells/well on day 1. […] Cells were incubated with FFN206 for 1hr. FFN206 uptake was terminated by aspirating the medium, and cells were washed twice with 200μL warm PBS (supplemented with 500μM MgCl2 and 900μM CaCl2), each with 5min incubation. Subsequently, 100μL warm PBS was added to each well and the plate was read with a Mithras LB 940 plate reader at excitation/emission filters 380nm/450nm.

VMAT2 [2] = molecular target: T1, VMAT2; experiment: FFN206 uptake upregulation assay (18-h treatment, washout) in HEK-VMAT2 cells; type: cell-based; set-up: The full-length mouse and human SLC18A2 cDNAs encoding VMAT2 were cloned into pcDNA3.1 vectors; expressed in transfected cells; settings: for Emax, % vehicle (mean ± SEM) / EC50: 18 h treatment followed by washout; for Emax, % vehicle (mean ± SEM): at Emax concentration; for Emax concentration: 18 h treatment, concentration giving Emax; for Hill slope (upregulation): 18 h upregulation curve fit; for Effect on VMAT2 activity, sustained: 10 μM, washout, vs vehicle; for Effect on VMAT2 activity, sustained / Effect on VMAT2 activity, sustained, known VMAT2 inhibitors: 18 h; for EC50: HEK-VMAT2 cells, read-out: EC50 (95% CI), VMAT2 upregulation; for Effect on VMAT2 activity, sustained, known VMAT2 inhibitors: increasing concentrations (Fig. S5)
hDAT mRNA = experiment: RT-qPCR of hDAT in HEK-YFP-DAT cells; type: cell-based, human; settings: 100 μM, 18 h, HEK293 cells
Method: (§3) HEK-VMAT2, HEK-YFP-DAT, HEK-SERT, and BE(2)-M17 cells were seeded in 6-well tissue culture plates at 1,000,000 cells/well density. […] On the third day, medium was aspirated and the cells were directly collected in 1 mL/well of Trizol for RNA isolation [26]. RNA was reverse-transcribed into cDNA using the SuperScript™ IV VILO™ Master Mix with ezDNase™ Enzyme. Quantitative RT-qPCR was performed using PowerUp™ SYBR™ Green Master Mix and QuantStudio 3 Real-Time PCR System (ThermoFisher Scientific). The relative fold of gene expression was calculated as 2^-(∆∆Ct) normalized to GAPDH levels.

SERT (SLC6A4) = molecular target: T2, SERT (SLC6A4) (Homo sapiens, UniProt P31645); type: cell-based
T2 construct: expressed in transfected cells
Method: (§1) HEK293, HEK-VMAT2, HEK-YFP-DAT, and HEK-SERT cells were seeded at 5,000,000 cells/dish density in 10 cm tissue culture dishes. […] On the collection day, cells were washed once with cold PBS, then harvested with 2 mL Tris-EDTA buffer (25 mM Tris-HCl, 1 mM EDTA, pH 7.4) containing freshly-added protease/phosphatase inhibitors. The cells were mechanically lysed on ice by Polytron (medium setting, 5 sec on, 5 sec off, two cycles), and centrifuged at 800 x g for 10 min at 4 °C to pellet the nuclear fraction. […] The supernatant was discarded and the pellet containing membrane proteins was resuspended with Tris-EDTA buffer with inhibitors and 0.2% SDS by vortexing until the pellet was dissolved. The protein concentration was determined using Pierce™ BCA Protein Assay Kits following the manufacturer’s instructions.
Electrophoretic resolution was done in MOPS-SDS running buffer (50 mM MOPS, 50 mM Tris, 0.1% SDS, 1 mM EDTA). The proteins were transferred onto a […] PVDF membrane and stained using Revert™ 700 Total Protein Stain. The resolved proteins were visualized at 700 nm on an Odyssey® M imaging system (LI-COR, Inc.). […] The blots were visualized under 700 nm and 800 nm channels on the Odyssey® M imaging system (LI-COR, Inc.) and quantified using ImageJ and Empiria Studio.

hSERT mRNA = experiment: RT-qPCR of hSERT in HEK-SERT cells; settings: 100 μM, 18 h, HEK293 cells
Method: as §3

DAT (SLC6A3) = DAT (SLC6A3) (Homo sapiens, UniProt Q01959); settings: 100 μM, 18 h, HEK-YFP-DAT cells
Method: as §1
(§2) Electrophoretic resolution was done in MOPS-SDS running buffer (50 mM MOPS, 50 mM Tris, 0.1% SDS, 1 mM EDTA). The proteins were transferred onto a […] PVDF membrane and stained using Revert™ 700 Total Protein Stain. The resolved proteins were visualized at 700 nm on an Odyssey® M imaging system (LI-COR, Inc.). […] For the VMAT2 blot, the membrane was incubated with rabbit serum (in 50% glycerol) containing anti-mVMAT2 antibody against C-terminal peptide ([…]) at 1:3000 dilution overnight at 4 °C [24]. For the YFP-DAT blot, the membrane was incubated with rabbit-anti-GFP antibody (A11122) at 1:1500 dilution for 2 h at room temperature. For the SERT blot, the membrane was incubated with rabbit anti-SERT antibody (A104336, Antibodies.com) at 1:1000 dilution overnight at 4 °C. IRDye® 800CW Goat anti-Rabbit IgG secondary antibody at 1:7000 dilution in 3% non-fat milk in TBST was used for all blots. The blots were visualized under 700 nm and 800 nm channels on the Odyssey® M imaging system (LI-COR, Inc.) and quantified using ImageJ and Empiria Studio.

VMAT2 [3] = molecular target: T1, VMAT2; settings: 100 μM, 18 h, HEK-VMAT2 cells
Method: as §1, §2

[4] = test system: nine missense VMAT2 BMVTD variants; experiment: FFN206 uptake of transiently transfected VMAT2 BMVTD variants in HEK293T cells; type: cell-based, human; settings: 50 μM, 18 h, total FFN206 fluorescence
mVMAT2 mRNA = experiment: RT-qPCR of mVMAT2 in HEK-VMAT2 cells; settings: 100 μM, 18 h, HEK293 cells
Method: as §3

[5] = test system: monoamine transporter mRNA (VMAT2, VMAT1, DAT, NET, SERT); experiment: RT-qPCR of endogenous monoamine transporters mRNA in BE(2)-M17 cells; type: cell-based, human; settings: 10 μM, 18 h
Method: as §3

VMAT2 [6] = molecular target: VMAT2 (Homo sapiens, UniProt Q05940); settings: 10 μM, 18 h, BE(2)-M17 cells
VMAT2 P237H = VMAT2 P237H (Homo sapiens, UniProt Q05940, P237H); settings: 18 h, increasing concentration
VMAT2 P387L = VMAT2 P387L (Homo sapiens, UniProt Q05940, P387L); settings: 18 h, increasing concentration
[7] = ref PubChem; cited from earlier work

## CN(C)CCC=C1c2ccccc2CCc2ccccc21 [AMI, Amitriptyline]
VMAT2 [1]
  IC50: 12.4 µM
  Hill Slope (inhibition): –1.173
  Imax, % vehicle (mean ± SEM): 8.47 ± 1.88 % vehicle
VMAT2 [2]
  Emax, % vehicle (mean ± SEM): 237.26 ± 7.63 % vehicle
  Emax concentration: 31.62 µM
  Hill slope (upregulation): 1.728

## CNCCCN1c2ccccc2CCc2ccccc21 [DES, Desipramine]
VMAT2 [1]
  IC50: 16.2 µM
  Hill Slope (inhibition): –1.176
  Imax, % vehicle (mean ± SEM): 7.51 ± 1.28 % vehicle
VMAT2 [2]
  Effect on VMAT2 activity, sustained: significant upregulation of VMAT2 activity
  EC50: 17.1 µM
  Emax, % vehicle (mean ± SEM): 177.59 ± 5.96 % vehicle
  Emax concentration: 56.23 µM
  Hill slope (upregulation): 1.530

## CN(C)CCCN1c2ccccc2CCc2ccccc21 [IMI, Imipramine]
VMAT2 [1]
  IC50: 17.3 µM
  Hill Slope (inhibition): –1.195
hDAT mRNA
  DAT mRNA expression: elevated mRNA expression
SERT (SLC6A4)
  Total SERT protein: significantly increased total SERT protein
hSERT mRNA
  SERT mRNA expression: elevated mRNA expression
VMAT2 [2]
  Effect on VMAT2 activity, sustained: significant upregulation of VMAT2 activity
  EC50: 29.9 µM
  Emax, % vehicle (mean ± SEM): 245.36 ± 15.06 % vehicle
  Hill slope (upregulation): 1.505
VMAT2 [2]; listed as imipramine
  Emax, % vehicle (mean ± SEM): 245.36 % vehicle
DAT (SLC6A3)
  Total DAT protein: did not affect total DAT protein
VMAT2 [3]
  Total VMAT2 protein: significant increase
[4]
  Activity of all VMAT2 variants: significant upregulation of activity of all VMAT2 variants
mVMAT2 mRNA
  VMAT2 mRNA expression: elevated mRNA expression
[5]
  Monoamine transporter mRNA (including VMAT2): no upregulation in any monoamine transporter mRNA

## CN1CCN2c3ccccc3Cc3ccccc3C2C1 (stereo not shown) [MIA, Mianserin]
VMAT2 [6]; followed by washout
  Endogenous VMAT2 activity: 270 % of vehicle
VMAT2 [6]; without drug washout
  Endogenous VMAT2 activity without washout: significant upregulation of endogenous VMAT2 activity
VMAT2 P237H
  Variant VMAT2 activity, dose-response: dose-dependent upregulation
DAT (SLC6A3)
  Total DAT protein: did not affect total DAT protein
[4]
  Activity of all VMAT2 variants: significant upregulation of activity of all VMAT2 variants
VMAT2 P387L
  Variant VMAT2 activity, dose-response: dose-dependent upregulation
[7]
  logP: 3.4

## CN1CCN2c3ncccc3Cc3ccccc3C2C1 (stereo not shown) [MIR, mirtazapine]
VMAT2 [1]
  IC50: 170 µM
  Hill Slope (inhibition): –0.978
  Imax, % vehicle (mean ± SEM): 63.27 ± 7.1 % vehicle
VMAT2 [2]
  EC50: 35.1 µM
  Emax, % vehicle (mean ± SEM): 175.11 ± 7.95 % vehicle
  Emax concentration: 100 µM
  Hill slope (upregulation): 2.486

## CNCCC=C1c2ccccc2CCc2ccccc21 [NOR, Nortriptyline]
VMAT2 [1]
  IC50: 13.3 µM
  Hill Slope (inhibition): –0.920
  Imax, % vehicle (mean ± SEM): 8.73 ± 1.11 % vehicle
VMAT2 [2]
  Effect on VMAT2 activity, sustained: significant upregulation of VMAT2 activity
  Emax, % vehicle (mean ± SEM): 207.90 ± 18.90 % vehicle
  Emax concentration: 31.62 µM
  Hill slope (upregulation): 0.915

## CNCCCC1c2ccccc2C=Cc2ccccc21 [PRO, Protriptyline]
VMAT2 [1]
  IC50: 4.35 µM
  Hill Slope (inhibition): –1.042
  Imax, % vehicle (mean ± SEM): 2.93 ± 0.24 % vehicle
VMAT2 [2]
  Effect on VMAT2 activity, sustained: significant upregulation of VMAT2 activity
  Emax, % vehicle (mean ± SEM): 223.92 ± 11.02 % vehicle
  Emax concentration: 31.62 µM
  Hill slope (upregulation): 0.777

## COc1cc2c(cc1OC)C1CC(=O)C(CC(C)C)CN1CC2 (stereo not shown) [TBZ, tetrabenazine]
VMAT2 [1]
  IC50: 0.037 µM
  Hill Slope (inhibition): –0.598
  Imax, % vehicle (mean ± SEM): 9.51 ± 0.67 % vehicle
VMAT2 [2]
  Effect on VMAT2 activity, sustained, known VMAT2 inhibitors: no upregulation of VMAT2 activity was observed

## CC(CN(C)C)CN1c2ccccc2CCc2ccccc21 (stereo not shown) [TRI, Trimipramine]
VMAT2 [1]
  IC50: 13.1 µM
  Hill Slope (inhibition): –1.173
  Imax, % vehicle (mean ± SEM): 5.87 ± 1.33 % vehicle
VMAT2 [2]
  Effect on VMAT2 activity, sustained: significant upregulation of VMAT2 activity
  EC50: 31.1 µM
  Emax, % vehicle (mean ± SEM): 194.63 ± 22.32 % vehicle
  Emax concentration: 100 µM
  Hill slope (upregulation): 1.939

## O=C(CCCN1CCC(O)(c2ccc(Cl)cc2)CC1)c1ccc(F)cc1 [haloperidol]
VMAT2 [2]
  Effect on VMAT2 activity, sustained, known VMAT2 inhibitors: no upregulation of VMAT2 activity was observed
